Reference: ChEMBL document CHEMBL3779770, “Synthesis, biological evaluation and molecular docking study of some novel indole and pyridine based 1,3,4-oxadiazole derivatives as potential antitubercular agents” (Bioorg Med Chem Lett, 2016)
≈ marks a conversion by molar mass, not a printed value.

Columns and labels:
[1] = Selectivity index, ratio of GI50 for human HeLa cells to MIC for dormant state Mycobacterium bovis BCG ATCC 35734; type: toxicity, cell-based; details: read-out: Selectivity Index
[2] = Selectivity index, ratio of GI50 for human PANC1 cells to MIC for active state Mycobacterium bovis BCG ATCC 35734; type: toxicity, cell-based, PANC-1; details: read-out: Selectivity Index
[3] = tested on: Mycobacterium tuberculosis; experiment: Antitubercular activity against dormant state Mycobacterium tuberculosis H37Ra assessed as viable cells after 12 days by XTT reduction menadione assay; type: functional, organism-based; details: 288 h
[4] = Selectivity index, ratio of GI50 for human A549 cells to MIC for active state Mycobacterium bovis BCG ATCC 35734; type: toxicity, cell-based; details: read-out: Selectivity Index
[5] = Selectivity index, ratio of GI50 for human A549 cells to MIC for dormant state Mycobacterium bovis BCG ATCC 35734; type: toxicity, cell-based; details: read-out: Selectivity Index
[6] = Selectivity index, ratio of GI50 for human HeLa cells to MIC for active state Mycobacterium bovis BCG ATCC 35734; type: toxicity, cell-based; details: read-out: Selectivity Index
[7] = tested on: Mycobacterium tuberculosis; experiment: Antitubercular activity against active state Mycobacterium tuberculosis H37Ra assessed as viable cells after 8 days by XTT reduction menadione assay; type: functional, organism-based; details: 192 h
[8] = Selectivity index, ratio of GI50 for human PANC1 cells to MIC for dormant state Mycobacterium bovis BCG ATCC 35734; type: toxicity, cell-based, PANC-1; details: read-out: Selectivity Index
[9] = tested on: Staphylococcus aureus; experiment: Antibacterial activity against Staphylococcus aureus NCIM 2010 after 12 hrs; type: functional, organism-based; details: NCIM 2010, 12 h
[10] = tested on: Escherichia coli; experiment: Antibacterial activity against Escherichia coli NCIM 2688 after 8 hrs; type: functional, organism-based; details: NCIM 2688, 8 h
[11] = tested on: Bacillus subtilis; experiment: Antibacterial activity against Bacillus subtilis NCIM 2079 after 12 hrs; type: functional, organism-based; details: NCIM 2079, 12 h
[12] = Cytotoxicity against human PANC1 cells after 48 hrs by MTT assay; type: cell-based, PANC-1; details: for GI50 at 48 h: PANC1 cells; for GI90: panc-1, 48 h
[13] = (§1) Cytotoxicity against human HeLa cells after 72 hrs by MTT assay; type: cell-based; details: HeLa cells
[14] = tested on: HeLa; experiment: as §1; type: cell-based; details: hela, 72 h
[15] = (§2) Cytotoxicity against human A549 cells after 48 hrs by MTT assay; type: cell-based; details: A549 cells
[16] = tested on: A549; experiment: as §2; type: cell-based; details: a549, 48 h
[17] = tested on: Pseudomonas fluorescens; experiment: Antibacterial activity against Pseudomonas fluorescens NCIM 2036 after 8 hrs; type: functional, organism-based; details: NCIM 2036, 8 h

| SMILES | selectivity ratio [1] | selectivity ratio [2] | IC50 [3] [µg/mL] | MIC [3] [µg/mL] | IC50 [7] [µg/mL] | MIC [7] [µg/mL] | IC50 [9] [µg/mL] | MIC [9] [µg/mL] | IC50 [10] [µg/mL] | MIC [10] [µg/mL] | IC50 [11] [µg/mL] | MIC [11] [µg/mL] | GI50 at 48 h [12] [µg/mL] | GI90 [12] [µg/mL] | GI50 at 72 h [13] [µg/mL] | GI90 [14] [µg/mL] | GI50 at 48 h [15] [µg/mL] | GI90 [16] [µg/mL] | IC50 [17] [µg/mL] | MIC [17] [µg/mL] | further results |
| --- | --- | --- | --- | --- | --- | --- | --- | --- | --- | --- | --- | --- | --- | --- | --- | --- | --- | --- | --- | --- | --- |
| CO[C@H]1/C=C/O[C@@]2(C)Oc3c(C)c(O)c4c(O)c(c(/C=N/N5CCN(C)CC5)c(O)c4c3C2=O)NC(=O)/C(C)=C\C=C\[C@H](C)[C@H](O)[C@@H](C)[C@@H](O)[C@@H](C)[C@H](OC(C)=O)[C@@H]1C [RIFAMPIN] | > 2700 | > 2860 | 0.0017 (≈ 0.00207 µM) | 0.045 (≈ 0.0547 µM) | 0.0016 (≈ 0.00194 µM) | 0.041 (≈ 0.0498 µM) | – | – | – | – | – | – | – | – | – | – | – | – | – | – | selectivity ratio [4]: > 2860; selectivity ratio [5]: > 2700; selectivity ratio [6]: > 2860; selectivity ratio [8]: > 2700 |
| O=C(/C=C\c1ccccc1O)N1N=C(c2ccncc2)OC1c1c[nH]c2ccccc12 (stereo not given) | 22.5 | > 31.9 | > 30 | > 30 | > 30 | > 30 | 23.3 (≈ 56.8 µM) | > 256 | 21.7 (≈ 52.9 µM) | > 256 | 22.1 (≈ 53.9 µM) | > 256 | > 30 | > 30 | 26.8 (≈ 65.3 µM) | > 30 | > 30 | > 30 | 22.5 (≈ 54.9 µM) | 192 (≈ 469 µM) | selectivity ratio [4]: > 31.9; selectivity ratio [5]: > 25.2; selectivity ratio [6]: 28.5; selectivity ratio [8]: > 25.2 |
| O=C(/C=C\c1cccc([N+](=O)[O-])c1)N1N=C(c2ccncc2)OC1c1c[nH]c2ccccc12 (stereo not given) | – | – | > 30 | > 30 | > 30 | > 30 | 21.7 (≈ 49.3 µM) | 93.2 (≈ 212 µM) | 19.2 (≈ 43.7 µM) | 174 (≈ 395 µM) | 22.4 (≈ 51 µM) | 86 (≈ 196 µM) | > 30 | > 30 | > 30 | > 30 | > 30 | > 30 | 20.9 (≈ 47.5 µM) | 55.7 (≈ 127 µM) | – |
| O=C(/C=C\c1ccccc1Cl)N1N=C(c2ccncc2)OC1c1c[nH]c2ccccc12 (stereo not given) | – | – | > 30 | > 30 | 11.6 (≈ 27.1 µM) | > 30 | 3.33 (≈ 7.76 µM) | 29.2 (≈ 68 µM) | 1.73 (≈ 4.03 µM) | 27.6 (≈ 64.3 µM) | 4.13 (≈ 9.63 µM) | 22 (≈ 51.3 µM) | > 30 | > 30 | > 30 | > 30 | > 30 | > 30 | 2.53 (≈ 5.9 µM) | 25.2 (≈ 58.7 µM) | – |
| O=C(/C=C\c1cccc(Br)c1)N1N=C(c2ccncc2)OC1c1c[nH]c2ccccc12 (stereo not given) | – | – | > 30 | > 30 | > 30 | > 30 | 2.01 (≈ 4.25 µM) | 21.1 (≈ 44.5 µM) | 2.39 (≈ 5.05 µM) | 18.2 (≈ 38.6 µM) | 4.74 (≈ 10 µM) | 22.6 (≈ 47.9 µM) | > 30 | > 30 | > 30 | > 30 | > 30 | > 30 | 3.19 (≈ 6.74 µM) | 19.1 (≈ 40.2 µM) | – |
| Cc1ccc(/C=C\C(=O)N2N=C(c3ccncc3)OC2c2c[nH]c3ccccc23)cc1 (stereo not given) | – | – | > 30 | > 30 | > 30 | > 30 | 5.73 (≈ 14 µM) | 9.46 (≈ 23.2 µM) | 3.33 (≈ 8.15 µM) | 7.86 (≈ 19.2 µM) | 6.53 (≈ 16 µM) | 10.3 (≈ 25.1 µM) | > 30 | > 30 | > 30 | > 30 | > 30 | > 30 | 4.13 (≈ 10.1 µM) | 8.66 (≈ 21.2 µM) | – |
| NNC(=O)c1ccncc1 [ISONIAZID] | > 2560 | > 3030 | 0.0014 (≈ 0.0102 µM) | 0.034 (≈ 0.248 µM) | 0.0013 (≈ 0.00948 µM) | 0.031 (≈ 0.226 µM) | – | – | – | – | – | – | – | – | – | – | – | – | – | – | selectivity ratio [4]: > 3030; selectivity ratio [5]: > 2560; selectivity ratio [6]: > 3030; selectivity ratio [8]: > 2560 |
| O=C(/C=C\c1cccc(F)c1)N1N=C(c2ccncc2)OC1c1c[nH]c2ccccc12 (stereo not given) | – | – | > 30 | > 30 | > 30 | > 30 | > 256 | > 256 | > 256 | > 256 | > 256 | > 256 | > 30 | > 30 | > 30 | > 30 | > 30 | > 30 | > 256 | > 256 | – |
| O=C(/C=C\c1ccccc1[N+](=O)[O-])N1N=C(c2ccncc2)OC1c1c[nH]c2ccccc12 (stereo not given) | > 35.3 | > 29.1 | > 30 | > 30 | > 30 | > 30 | 21.1 (≈ 47.9 µM) | > 256 | 18.4 (≈ 41.8 µM) | > 256 | 24.2 (≈ 55.2 µM) | > 256 | > 30 | > 30 | > 30 | > 30 | > 30 | > 30 | 19.2 (≈ 43.7 µM) | > 256 | selectivity ratio [4]: > 29.1; selectivity ratio [5]: > 35.3; selectivity ratio [6]: > 29.1; selectivity ratio [8]: > 35.3 |
| O=C(/C=C\c1ccc(Cl)cc1Cl)N1N=C(c2ccncc2)OC1c1c[nH]c2ccccc12 (stereo not given) | 5.9 | > 5.8 | 27.5 (≈ 59.4 µM) | > 30 | 29.3 (≈ 63.3 µM) | > 30 | > 256 | > 256 | > 256 | > 256 | > 256 | > 256 | > 30 | > 30 | 29.3 (≈ 63.3 µM) | > 30 | > 30 | > 30 | > 256 | > 256 | selectivity ratio [4]: > 5.8; selectivity ratio [5]: > 6.03; selectivity ratio [6]: 5.68; selectivity ratio [8]: > 6.03 |
| O=C(/C=C\c1cccc(O)c1)N1N=C(c2ccncc2)OC1c1c[nH]c2ccccc12 (stereo not given) | – | – | > 30 | > 30 | > 30 | > 30 | 18.2 (≈ 44.5 µM) | 84.4 (≈ 206 µM) | 16.6 (≈ 40.6 µM) | 49.2 (≈ 120 µM) | 19.8 (≈ 48.4 µM) | 121 (≈ 295 µM) | > 30 | > 30 | > 30 | > 30 | > 30 | > 30 | 17.4 (≈ 42.5 µM) | 82.8 (≈ 202 µM) | – |
